# Data: patent US20260009085A1, “METHODS AND COMPOSITIONS FOR THE DIAGNOSIS AND TREATMENT OF CANCER” (Chengdu Anticancer Bioscience, Ltd., priority 2023, published 2026)
# Assays:
# [1] = test system: RPE-NEO; test: Model cell screen: CPPC complex localization and cell death, RPE-NEO; format: cell-based, human
# Method: In the model screening cell lines, there was an indistinguishable threshold concentration of approximately 20 nM, which was required to show disruption of the CPPC complex by IHC at the spindle midzone and equatorial cortex of anaphase cells, indicating a failure in CPPC relocation. This similarity in the threshold effective concentration for target inhibition is, therefore, not influenced by overexpression of MYC. […] Similar data with other MYC-SL compounds were observed.
# [2] = test system: panel of 98 human cancer cell lines; test: Concentration-response in panel of 98 human cancer cell lines with MYC/MKLP2 biomarker statistical analysis (AUC, EC50, IC50, Emax, h); format: cell-based
# Method: For passaging of cell lines prior to a […] (MTT) assay, cells were routinely split when reaching mid-log phase and not allowed to progress to confluence. For the determination of cytotoxicity, cells were plated in 96-well plates at 4,000 cells per well in a volume of 100 μL and cultivated for 15 to 24 hours to reach 20-30% confluence. Cells on the plate were then exposed in triplicate to test compounds at concentrations ranging from 0.06 nM to 10 μM by using 3-fold serial dilutions or a concentration range from 5 nM to 10 μM using 2-fold serial dilutions. Cells exposed to vehicle (0.1% DMSO) were used as a negative control. Three days after initiation of the treatment, 20 μL of MTT (stock solution 5 mg/mL) was added to each well before incubation at 37° C. for another 3-4 hours. The medium was then aspirated with a microplate washer (BioTek ELX50) before 50 μL of DMSO was added to each well. After incubation with shaking for 10 minutes, the 96-well plate was analyzed with a microplate reader (BioTek ELX808iu) at a wavelength of 570 nm. The relative cell number was calculated as (A570^Compound/A570^DMSO)×100%. […] Statistical analysis was performed in GraphPad Prism 8.0.2. Error bars were presented as mean±1 standard deviation.
# The CellTiter-Glo® (CTG) assay determines levels of ATP, and therefore the metabolic health of cell grown in culture. […] Wells containing medium without cells were used as a baseline control to obtain a value for background luminescence. […] 150 μL of the mixture was transferred to a white 96-well microplate (Falcon, Cat. #353296) and the luminescence signal was recorded by a microplate reader (Tecan Spark).
# To develop a comparative metric reflecting the level of MYC and/or MKLP2 in a given cell line, the signal intensity of the MYC and MKLP2 protein bands from immunoblot analysis were normalized to the intensity of the housekeeping protein β-ACTIN. […] Whole cell MYC and MKLP2 proteins were quantified in a panel of 98 human cancer cell lines, see Table 4, below. […]
smiles,measurement,setting,value
CNC(=O)c1cc(OC)cc(Oc2ncccc2-c2ccnc(C)c2)c1 [LG157],cell death,[1],not RPE-NEO cells
same,threshold concentration required to show disruption of the CPPC complex,[1]; IHC at spindle midzone and equatorial cortex of anaphase cells,approximately 20 nM
same,"association of oncogenic alterations (TP53, RB, PTEN, RAS, BRAF, PI3K) with response",[2]; 89 of the 98 cell lines,no evidence was found that these alterations were associated with either sensitivity or resistance
same,relation of MKLP2 protein level to response,[2]; 98 cell lines,"lower protein levels of MKLP2, but not high, predicted a favorable response"
same,relation of MYC abundance to sensitivity,[2]; 98 cell lines,the abundance of MYC in the human cancer cell lines positively relates to sensitivity
